From patent publication US9253985B2, “Herbicidal composition for tolerant or resistant cereal crops” (priority 2010, dated 2016)
Like-named read-outs stand apart in the source and are kept apart here.

Columns and labels:
Format in all cases: in vivo
wheat (GA-tolerant) = system: wheat (GA-tolerant)
Experimental: (§1) The trials were carried out under greenhouse conditions (test pots, diameter 8 cm, spray application using 300 l of water/hectare, 2 repetitions, 6 to 8 plants per pot).
(§2) At the time of application, the harmful plants were at the 2-4-leaf growth stage.

Matricaria chamomilla = experiment: Greenhouse trial: herbicidal efficacy, Matricaria chamomilla; details: post-emergence 2-4-leaf, 14 days after application, g of ai/ha: A1.1 100, B1.1 5, C5 1.25, C24 12.5, C9 7.5, C32 62.5, C37 5, C58 5, C60 10, C61 25, C66 0.375, C71 0.5, C74 0.375, C42 125, mixtures at same rates
Experimental: as §1
(§3) At the time of application, the harmful plants were at the 2-4-leaf growth stage. The application rates of the herbicidally active compounds used on their own or in combinations are listed in the results tables.
(§4) Scoring was by visual comparison of the treated with the untreated controls (0-100% scale, 14 days after the application. The results (means for all plants per pot and means of two repetitions per pot and treatment) are listed in Tables 4 to 8 below.
(§5) 4.2 Abbreviations used in Tables 4 to 6application rate g/ai=application rate in grams of active compound per hectare • ai=active ingredient (of an active compound content of 100%) • GA=glufosinate-ammonium • wheat tolerant • to GA=GA-tolerant wheat (GMO) • E^C=expected value according to Colby, (E^C=A+B−A×B/100)= • =for ternary combinations: (A+B)+C−(A+B)×C/100 • E^A=expected value according to the addition method (E^A=A+B) • Δ=difference (%) between observed value —%—vs. expected value (%) (observed value minus expected value) • examination: observed values for (A), (B) and (A)+(B) in % • scoring: observed value (%) greater>than E^C/E^A:->synergism (+Δ) • observed value (%) equal to =E^C/E^A->additive effect (+−0Δ) • observed value (%) smaller<than E^A/E^C->antagonism (−Δ)

Setaria viridis = experiment: Greenhouse trial: herbicidal efficacy, Setaria viridis; details: post-emergence 2-4-leaf, 14 days after application
Experimental: as §1, §3, §4, §5

Lolium multiflorum = experiment: Greenhouse trial: herbicidal efficacy, Lolium multiflorum; details: post-emergence 2-4-leaf, 14 days after application, g of ai/ha: A1.1 100, B1.1 5, C62 1.25, C4 60, mixtures at same rates
Experimental: as §1, §3, §4, §5

[1] = system: Brassica napus (volunteer weed); experiment: Greenhouse trial: herbicidal efficacy, Brassica napus; details: post-emergence 2-4-leaf, 14 days after application, g of ai/ha: A1.1 100, B1.1 5, C12 12.5, C18 50, mixtures at same rates
Experimental: as §1, §3, §4, §5

Viola arvensis = experiment: Greenhouse trial: herbicidal efficacy, Viola arvensis; details: post-emergence 2-4-leaf, 14 days after application, g of ai/ha: A1.1 100, B1.1 5, C7 100, C25 1.25, C52 2.5, C43 100, C57 5, mixtures at same rates
Experimental: as §1, §2

[2] = Table 4, greenhouse, post-emergence, 14 days after application, g of ai/ha: A1.1 100, B1.1 5, C5 1.25, C24 12.5, C9 7.5, C32 62.5, C37 5, C58 5, C60 10, C61 25, C66 0.375, C71 0.5, C74 0.375, C42 125, mixtures at same rates
[3] = Table 5, greenhouse, post-emergence, 14 days after application, g of ai/ha: A1.1 100, B1.1 5, C7 100, C25 1.25, C52 2.5, C43 100, C57 5, mixtures at same rates
[4] = Table 6, greenhouse, post-emergence, 14 days after application, g of ai/ha: A1.1 100, B1.1 5, C12 12.5, C18 50, mixtures at same rates
[5] = Table 7, greenhouse, post-emergence, 14 days after application, g of ai/ha: A1.1 100, line r12 5, C28 50, C40 1, C43 100, C13 50, mixtures (100 + 5) + partner rate
[6] = Table 8, greenhouse, post-emergence, 14 days after application, g of ai/ha: A1.1 100, B1.1 5, C62 1.25, C4 60, mixtures at same rates
[7] = g of ai/ha: A1.1 100, line r12 5, C28 50, C40 1, C43 100, C13 50, mixtures (100 + 5) + partner rate

SMILES: CP(=O)(O)CCC(N)C(=O)O (stereo not drawn) [(A1.1) GA, glufosinate-ammonium]
- Damage to crop plants (%) wheat (GA-tolerant) (wheat (GA-tolerant); [2]): 10%
- Damage to crop plants (%) wheat (GA-tolerant) (wheat (GA-tolerant); [3]): 10%
- Damage to crop plants (%) wheat (GA-tolerant) (wheat (GA-tolerant); [4]): 10%
- Damage to crop plants (%) wheat (GA-tolerant) (wheat (GA-tolerant); [5]): 10%
- Damage to crop plants (%) wheat (GA-tolerant) (wheat (GA-tolerant); [6]): 10%
- Herbicidal efficacy (%) Matricaria chamomilla (Matricaria chamomilla): 50%
- Herbicidal efficacy (%) Setaria viridis (Setaria viridis; g of ai/ha: A1.1 100, C28 50, C40 1, C43 100, C13 50, mixtures (100 + 5) + partner rate): 90%
- Herbicidal efficacy (%) Lolium multiflorum (Lolium multiflorum): 15%
- Herbicidal efficacy (%) Brassica napus [1]: 15%
- Herbicidal efficacy (%) Viola arvensis (Viola arvensis): 50%

SMILES: COC(=O)c1nc(-c2ccc(Cl)c(OC)c2F)cc(N)c1Cl [(B1.1), methyl 4-amino-3-chloro-6-(4-chloro-2-fluoro-3-methoxyphenyl)pyridine-2-carboxylate]
- Damage to crop plants (%) wheat (GA-tolerant) (wheat (GA-tolerant); in vivo): 0%
- Herbicidal efficacy (%) Matricaria chamomilla (Matricaria chamomilla): 20%
- Herbicidal efficacy (%) Lolium multiflorum (Lolium multiflorum): 0%
- Herbicidal efficacy (%) Brassica napus [1]: 60%
- Herbicidal efficacy (%) Viola arvensis (Viola arvensis): 50%

SMILES: CCOC(=O)C1=NN(c2ccc(Cl)cc2Cl)C(C)(C(=O)OCC)C1 (stereo not drawn) [(C4) mefenpyr-di-et, mefenpyr(-diethyl)]
- Damage to crop plants (%) wheat (GA-tolerant) (wheat (GA-tolerant); [6]): 0%
- Herbicidal efficacy (%) Lolium multiflorum (Lolium multiflorum): 0%

SMILES: COc1cc(OC)nc(NC(=O)NS(=O)(=O)N(C)S(C)(=O)=O)n1 [(C5) amidosulfuron, amidosulfuron]
- Damage to crop plants (%) wheat (GA-tolerant) (wheat (GA-tolerant); in vivo): 0%
- Herbicidal efficacy (%) Matricaria chamomilla (Matricaria chamomilla): 45%

SMILES: N#Cc1cc(Br)c(O)c(Br)c1 [(C7) bromoxynil, bromoxynil]
- Damage to crop plants (%) wheat (GA-tolerant) (wheat (GA-tolerant); [3]): 0%
- Herbicidal efficacy (%) Viola arvensis (Viola arvensis): 20%

SMILES: CCOC(=O)C(Cl)Cc1cc(-n2nc(C)n(C(F)F)c2=O)c(F)cc1Cl (stereo not drawn) [(C9) carfentrazone, carfentrazone-ethyl]
- Damage to crop plants (%) wheat (GA-tolerant) (wheat (GA-tolerant); [2]): 10%
- Herbicidal efficacy (%) Matricaria chamomilla (Matricaria chamomilla): 0%

SMILES: C#CCOC(=O)[C@@H](C)Oc1ccc(Oc2ncc(Cl)cc2F)cc1 [(C12) clodinafop, clodinafop-propargyl]
- Damage to crop plants (%) wheat (GA-tolerant) (wheat (GA-tolerant); in vivo): 0%
- Herbicidal efficacy (%) Brassica napus [1]: 0%

SMILES: O=C(O)COc1ccc(Cl)cc1Cl [(C13) 2,4-D, 2,4-D]
- Damage to crop plants (%) wheat (GA-tolerant) (wheat (GA-tolerant); [5]): 0%
- Herbicidal efficacy (%) Setaria viridis (Setaria viridis; [7]): 0%

SMILES: O=C(Nc1ccc(F)cc1F)c1cccnc1Oc1cccc(C(F)(F)F)c1 [(C18) diflufenican, diflufenican]
- Damage to crop plants (%) wheat (GA-tolerant) (wheat (GA-tolerant); [4]): 10%
- Herbicidal efficacy (%) Brassica napus [1]: 30%

SMILES: CCOC(=O)[C@@H](C)Oc1ccc(Oc2nc3ccc(Cl)cc3o2)cc1 [(C24) fenoxaprop-p-et., fenoxaprop-P-ethyl]
- Damage to crop plants (%) wheat (GA-tolerant) (wheat (GA-tolerant); [2]): 0%
- Herbicidal efficacy (%) Matricaria chamomilla (Matricaria chamomilla): 0%

SMILES: COc1ncc(F)c2nc(S(=O)(=O)Nc3c(F)cccc3F)nn12 [(C25) florasulam, florasulam]
- Damage to crop plants (%) wheat (GA-tolerant) (wheat (GA-tolerant); [3]): 0%
- Herbicidal efficacy (%) Viola arvensis (Viola arvensis): 20%

SMILES: CC(C)N(C(=O)COc1nnc(C(F)(F)F)s1)c1ccc(F)cc1 [(C28) flufenacet, flufenacet (thiafluamide)]
- Herbicidal efficacy (%) Setaria viridis (Setaria viridis; [7]): 20%

SMILES: CNC1=C(c2cccc(C(F)(F)F)c2)C(=O)C(c2ccccc2)O1 (stereo not drawn) [(C32) flurtamone, flurtamone]
- Damage to crop plants (%) wheat (GA-tolerant) (wheat (GA-tolerant); [2]): 15%
- Herbicidal efficacy (%) Matricaria chamomilla (Matricaria chamomilla): 25%

SMILES: COCc1cnc(C2=NC(C)(C(C)C)C(=O)N2)c(C(=O)O)c1 (stereo not drawn) [(C37) imazamox, imazamox]
- Damage to crop plants (%) wheat (GA-tolerant) (wheat (GA-tolerant); [2]): 15%
- Herbicidal efficacy (%) Matricaria chamomilla (Matricaria chamomilla): 0%

SMILES: COC(=O)c1ccc(I)cc1S(=O)(=O)[N-]C(=O)Nc1nc(C)nc(OC)n1.[Na+] [(C40) iodosulfuron-me-Na, iodosulfuron-methyl-sodium]
- Damage to crop plants (%) wheat (GA-tolerant) (wheat (GA-tolerant); [5]): 0%
- Herbicidal efficacy (%) Setaria viridis (Setaria viridis; [7]): 10%

SMILES: CC(C)c1ccc(NC(=O)N(C)C)cc1 [(C42) isoproturon, isoproturon]
- Damage to crop plants (%) wheat (GA-tolerant) (wheat (GA-tolerant); in vivo): 0%
- Herbicidal efficacy (%) Matricaria chamomilla (Matricaria chamomilla): 15%

SMILES: Cc1cc(Cl)ccc1OCC(=O)O [(C43) MCPA, MCPA]
- Damage to crop plants (%) wheat (GA-tolerant) (wheat (GA-tolerant); [3]): 0%
- Damage to crop plants (%) wheat (GA-tolerant) (wheat (GA-tolerant); [5]): 0%
- Herbicidal efficacy (%) Setaria viridis (Setaria viridis; [7]): 0%
- Herbicidal efficacy (%) Viola arvensis (Viola arvensis): 10%

SMILES: COC(=O)c1ccc(CNS(C)(=O)=O)cc1S(=O)(=O)NC(=O)Nc1nc(OC)cc(OC)n1 [(C52) mesosulfuron-me, mesosulfuron-methyl]
- Damage to crop plants (%) wheat (GA-tolerant) (wheat (GA-tolerant); in vivo): 0%
- Herbicidal efficacy (%) Viola arvensis (Viola arvensis): 0%

SMILES: COc1cnc(OC)n2nc(NS(=O)(=O)c3c(OCC(F)F)cccc3C(F)(F)F)nc12 [(C57) penoxulam, penoxsulam]
- Damage to crop plants (%) wheat (GA-tolerant) (wheat (GA-tolerant); in vivo): 0%
- Herbicidal efficacy (%) Viola arvensis (Viola arvensis): 5%

SMILES: CCc1cc(C)cc(CC)c1-c1c(OC(=O)C(C)(C)C)n2n(c1=O)CCOCC2 [(C58) pinoxaden, pinoxaden]
- Damage to crop plants (%) wheat (GA-tolerant) (wheat (GA-tolerant); [2]): 0%
- Herbicidal efficacy (%) Matricaria chamomilla (Matricaria chamomilla): 0%

SMILES: CCCOc1nn(C(=O)[N-]S(=O)(=O)c2ccccc2C(=O)OC)c(=O)n1C.[Na+] [(C60) propoxycarbazone-Na, propoxycarbazone-sodium]
- Damage to crop plants (%) wheat (GA-tolerant) (wheat (GA-tolerant); [2]): 10%
- Herbicidal efficacy (%) Matricaria chamomilla (Matricaria chamomilla): 10%

SMILES: Cc1nn(C)c(O)c1C(=O)c1ccc(C(F)(F)F)cc1S(C)(=O)=O [(C61) pyrasulfutole, pyrasulfutole]
- Damage to crop plants (%) wheat (GA-tolerant) (wheat (GA-tolerant); in vivo): 0%
- Herbicidal efficacy (%) Matricaria chamomilla (Matricaria chamomilla): 50%

SMILES: COc1cc(OC)n2nc(NS(=O)(=O)c3c(C(F)(F)F)ccnc3OC)nc2n1 [(C62) pyroxulam, pyroxsulam]
- Damage to crop plants (%) wheat (GA-tolerant) (wheat (GA-tolerant); in vivo): 10%
- Herbicidal efficacy (%) Lolium multiflorum (Lolium multiflorum): 40%

SMILES: COC(=O)c1csc(C)c1S(=O)(=O)NC(=O)n1nc(OC)n(C)c1=O [(C66) thiencarbazone-me, thiencarbazone-methyl]
- Damage to crop plants (%) wheat (GA-tolerant) (wheat (GA-tolerant); in vivo): 5%
- Herbicidal efficacy (%) Matricaria chamomilla (Matricaria chamomilla): 10%

SMILES: COc1nc(C)nc(N(C)C(=O)NS(=O)(=O)c2ccccc2C(=O)O)n1 [(C71) tribenuron, tribenuron]
- Damage to crop plants (%) wheat (GA-tolerant) (wheat (GA-tolerant); [2]): 0%
- Herbicidal efficacy (%) Matricaria chamomilla (Matricaria chamomilla): 0%

SMILES: COc1nc(C)nc(=NC(=O)NS(=O)(=O)c2ccccc2C(=O)O)[nH]1 [(C74) metsulfuron, metsulfuron]
- Damage to crop plants (%) wheat (GA-tolerant) (wheat (GA-tolerant); [2]): 0%
